Literature values in patent publication US10335411B2, “Administration of ubiquitin-activating enzyme inhibitor and radiation” (Millennium Pharmaceuticals, Inc., priority 2014, dated 2019).

Experiments:
[1] = system: leukemia and myeloma cell lines; settings: Xu et al., 2010; cited from earlier work
[2] = system: mouse acute myeloid leukemia (AML model); settings: Xu et al., 2010; cited from earlier work

Question: With O=C1NN(c2ccc(F)c(Cl)c2)C(=O)/C1=C\c1ccc([N+](=O)[O-])o1 [PYZD-4409] as the molecule, how does the cell death [1] read?
Answer: induced cell death

Question: What about the anti-tumor activity [2] of the same molecule?
Answer: induced anti-tumor activity
